Results: US20260297035A1, “PROTEIN KINASE INHIBITORS AND USES THEREOF” (DELiver Therapeutics, Inc., priority 2023, published 2026)
Read-outs that look alike come from different tables or passages of the source.

Columns and labels:
[1] = molecular target: ABL1(wt) (Homo sapiens, UniProt P00519); experiment: Z′-LYTE assay (labeled peptide cleavage), ABL1(wt); format: biochemical
Text: (§1) This Example describes a cell-free assay utilized to identify candidate compounds that bind to and inhibit protein kinase (PK) and PK variants. One assay is referred to as a “Z′-LYTE assay” and is an example of a labeled peptide cleavage assay. The fluorescence-based assay relies on the differential sensitivity of a small, dual-end-labelled peptide to cleavage by a protease, dependent on the phosphorylation state of the peptide (FIG. 1). The peptide substrate is end-labelled with two distinct fluorophores that comprise a Fluorescence Resonance Energy Transfer (FRET) pair.
(§2) In the absence of inhibitor, the kinase transfers the gamma-phosphate from ATP to the single, unique tyrosine, serine or threonine in the synthetic FRET peptide. The reaction conditions are titrated such that 10-40% of the peptide substrate is phosphorylated. In a second reaction, a site-specific protease that only recognizes and cleaves the non-phosphorylated FRET peptide is added. Cleavage interferes with FRET between the donor (i.e., coumarin) and the acceptor (i.e., fluorescein) fluorophores on the FRET-peptide substrate, unlike the phosphorylated, uncleaved peptide.
(§3) The Test Compounds are screened in 1% DMSO (final) in the well.
(§4) All Peptide/Kinase Mixtures are diluted to a 2× working concentration in the appropriate Kinase Buffer. The 2×ABL1 polypeptide/Tyr 02 substrate peptide mixture is prepared in 50 mM HEPES pH 7.5, 0.01% BRIJ-35, 10 mM MgCl2, 1 mM EGTA. The final 10 μL Kinase Reaction contains 0.3-1.2 ng ABL1 (or 1.36-6 ng ABL1(T315I)) and 2 μM Tyr 02 in 50 mM HEPES, pH 7.5, 0.01% BRIJ-35, 10 mM MgCl2, 1 mM EGTA. After the 1-hour Kinase Reaction incubation, 5 μL of a 1:128 dilution of Development Reagent A is added. The ABL1(wt) polypeptide utilized for the assay described in this Example was the “isoahABL1(wt)” polypeptide described herein (SEQ ID NO:4), which is referred to as “ABL1” in Table 1 and “ABL1(wt)” or “WT” in Table 3 of this Example. The ABL1 variant polypeptides utilized contained the same polypeptide as the “isoahABL1(wt)” polypeptide except that each contained one corresponding amino acid substitution chosen from E255K, F317I, F317L, G250E, T315I or Y253F. […]
(§5) All ATP Solutions are diluted to a 4× working concentration in Kinase Buffer (50 mM HEPES, pH 7.5, 0.01% BRIJ-35, 10 mM MgCl2, 1 mM EGTA). The ATP Km apparent (Km app) is previously determined using a Z′-LYTE assay.
(§6) Bar-coded Corning, low volume NBS, black 384-well plate (Corning Cat. #4514) • 1. […] Read on fluorescence plate reader and analyze the data
A known inhibitor control standard curve, 10-point titration, is run for each individual kinase on the same plate as the kinase to ensure the kinase is inhibited within an expected IC50 range previously determined. […]

[2] = molecular target: T1, ABL1 T315I (Homo sapiens, UniProt P00519, T315I); experiment: Z′-LYTE assay, ABL1 T315I; format: biochemical
T1 construct: The ABL1 variant polypeptides utilized contained the same polypeptide as the “isoahABL1(wt)” polypeptide except that each contained one corresponding amino acid substitution
Text: as §1, §2, §3, §4, §5, §6

[3] = tested on: NALM-21; experiment: In vitro cytotoxic activity (CellTiterGlo), NALM-21 (ALL); format: cell-based; details: Homo sapiens; 48-hours; read-out: NALM-21 LD50
Method: (§7) Non-metabolized targeted toxicity, or general toxicity, of compounds was assessed by treating a panel of selected cell lines in culture with a dilution series of test compounds and the lethal dose that will kill half of the cells (i.e., the LD50) was determined. Compounds herein were assayed against a panel of cytokine-independent Philadelphia chromosome (BCR-ABL1 translocation) positive (Ph+) leukemia and lymphoma cell lines along with several control cell lines that were ABL1-independent. The panel included murine cell lines BaF3-wildtype (wt), BaF3-mutants (BaF3-wt cells engineered to be reliant on various kinase domain mutations with the BCR-ABL1 fusion protein), and various ALL and CML human cell lines, including SD-1, TOM-1, NALM-21, K562, Jeko-1, BV173, and KCL-22.
(§8) To test the cytotoxic activity of compounds herein, 1.6E4 cells were plated in 96-well plates at a final volume of 135 μL per well. Compounds were then added to the wells. In general, final concentrations of compounds started at a maximum concentration of […] and were diluted by half-log concentrations down to a final concentration of 0.316 nM. However, different cell lines required varying drug concentration ranges for optimal LD50 calculations. To create half-log dilutions, 40 mM DMSO solutions of compounds were diluted in half-log iterations to generate 400× starting concentration of compounds in DMSO. The 400× compound solutions were then diluted by 40-fold by adding 5 μL of 400× DMSO stock to 195 μL cell culture media, generating 10× drug concentrations in cell culture media. Then 15 μL of the 10× drug solutions were added to the 135 μL volume of cell suspension, resulting in 1× final drug concentrations with 0.25% DMSO in all wells. 48-hours after adding compounds, cells were measured for relative viability to generate cytotoxicity curves associated with the varying concentrations of compounds. […] LD50 values were measured by normalizing luminescence intensity to the lowest drug concentration. GraphPad Prism was used to plot and calculate LD50 values from the cytotoxic kill curves. Curves were fit to a non-linear regression model, with compound concentration vs. response and variable slope (four parameters).

[4] = tested on: K562; experiment: In vitro cytotoxic activity (CellTiterGlo), K562 (CML); format: cell-based; details: Homo sapiens, 48-hours, read-out: K562 LD50
Method: as §7, §8

## Cc1ccc(Nc2ncc3cccc(-c4ccc(F)cc4OC(C)C)c3n2)cc1NC(=O)c1ccc(C(=O)N(C)C)cc1 [Cmpd11, N1-(5-((8-(4-fluoro-2-isopropoxyphenyl)quinazolin-2-yl)amino)-2-methylphenyl)-N4,N4-dimethylterephthalamide]
[1]; class by IC50 values in Table 5, read-out: inhibitor class of ABL1(wt) according to IC50
  IC50: < 20 nM
[1]; test compounds, Z′-LYTE, read-out: IC50 values for test compounds, ABL1(wt)
  IC50: 2.93 nM
[2]; class by IC50 values in Table 5, read-out: inhibitor class of ABL(T315I) according to IC50
  IC50: < 20 nM
[2]; test compounds, Z′-LYTE, read-out: IC50 values for test compounds, ABL1(T315I)
  IC50: 1.89 nM
[3]
  IC50: 446 nM
[4]
  IC50: 403 nM
